Assay results as given in patent publication US20200147038A1, “ASSESSING AND TREATING PSYCHEDELIC-[…]” (Eleusis Benefit Corporation, PBC, priority 2017, published 2020).
Several values for one entry are separate records, joined by “and”; a condition that tells them apart may be missing. Equal entries are not always repeated.

Legend:
[1] = Retrospective online survey of individuals who had consumed psilocybin (Example 1; MEQ30, positive change); format: in vivo, human
Method: A retrospective survey study was conducted based on crowdsourced online data gathered from individuals who had volitionally consumed psilocybin within the past year. Data were collected about participants' traits and demographic background, and then individuals were primed to recall their life experience before, at the time of ingestion, during, and after the psilocybin before completing scales to measure hypothesized traits and states. Previously validated scales were used where available (e.g., Tellegen Absorption Scale, MEQ30), and new scales were developed and tested for traits and states without existing measures (mental barriers, identity distress, state of surrender). A hierarchical regression model was used to test the relationships, and a path analysis was conducted to test the mediating capacity of ME.
Participants were directed to the relevant webpage after reading informed consent text, completing screening and agreeing to participate in accordance with the stipulations of the Institutional Review Board. Scaled items in all but the long-term outcomes used 4-point Likert scales ranging from 1=Strongly Disagree to 4=Strongly Agree. Answers were required for each item, but each included an option “I prefer not to answer.”
Participants' experiences were measured in two pages on the survey. The first activated their recollection of the experience through an open-ended question asking them to describe their experience and specific fixed response questions about their experience, including whether their eyes were primarily open or closed and the extent to which they were talking or exposed to media with words during their experience. On the second page, subjects responded to […] intermixed items on a 4-point Likert scale from the Mystical Experience Questionnaire (MEQ30) and 36 items from the Sacred Emotions Scale (SES), measuring the extent to which they felt “exuberance” and “dread” during the experience.
The MEQ30 is a validated scale consisting of 30 items systematically validated and utilized in psychedelic studies. Some of the items from the MEQ30 were adapted for this study so that they were semantically consistent with the other scale (e.g., changed “I felt certain that I′d encountered ultimate reality” to “Certainty that I′d encountered ultimate reality”), and used a 4-point rather than a 7-point scale for reasons described above. The scale measures four dimensions of a mystical experience: (a) Mystical; 15 items with α=0.957, (b) Ineffability; 3 items with α=0.775, (c) Timelessness/Spacelessness; 6 items with α=0.844, and (d) Positive Affect; 6 items with α=0.851. The total scale produced Cronbach α=0.967. All of the reliability scores from this sample were similar to internal reliability scores produced in the norming sample (MacLean), which ranged from 0.831 to 0.936 for the four factors and 0.957 for the total scale.
Participants were asked to describe their current state in two pages. […] The second page offered 46 statements including 15 intermixed items adapted from the work of Griffiths et al., (Psychopharmacology 2006, 187:268-283) measuring
Data were collected on Amazon Mechanical Turk (MTurk), an online source in which individuals participate in survey studies for small cash compensation. […] Individuals who were registered as MTurk Workers from the U.S. indicated their interest by accepting the job or the “hit.” If individuals accepted the “hit,” they were directed to a screening page. If they passed those screening items, described below, they were given a link and password to the informed consent followed by the actual survey. • Screening
The mean number of correct attention items in the final sample was 11.5 of 12 (SD=1.02), and the mean for the non-selected group was 4.69 (SD=3.36) attention items answered correctly. The final sample consisted of 143 valid responses with 81 males and 62 females (43%), and an average age of 31.1 (SD=9.64), with ages ranging from 18 to 62 years. […]

[2] = Retrospective online survey of psilocybin users (Example 2; 5D-ASC Mystical-OBN / Adverse-DED, long-term change); format: in vivo, human; conditions: for Negative Change, Mean / Positive Change, Mean: 5-point scale, 3=no change; for Flourishing, Mean: 6-point scale; for Importance, Mean: slider scale 1 to 100
From the text: Participants were U.S. residents recruited through Amazon Mechanical Turk (MTurk; an online source in which individuals participate in survey studies for small cash compensation) who had ingested psilocybin within the past twelve months. The final screened sample consisted of 183 valid responses with 97 males (53.0%) and 85 females (46.4%) (1 missing), and an average age of 31.9 (SD=9.43) ranging from 18 to 70 years.
[…]. The six sections included background items, trait measures, prior state (i.e., life situation before psilocybin session), proximal state (i.e., emotions and motivation at ingestion), intrasession measures (i.e., the experience itself), and current state. Scaled items in all but the long-term outcomes used […] Likert scales ranging from 1=Strongly Disagree to 6=Strongly Agree. Open-ended questions designed to activate participants' relevant recollections were completed before responding to scale items related to prior state, proximal state, intrasession, and current status. Measures utilized in the regression models include the following;
Measures of intrasession experience based on items from six subscales of the 5D-ASC (Dittrich et al., A Pharmacopsychiatry 1998, 31:80; Studerus et al., PLoS ONE 2010, 5). Mystical-OBN used a mean of items measuring Oceanic Boundlessness (Studerus et al., PLoS ONE 2012, 7): “experience of unity”, “spiritual experience”, “blissful state”, and “insightfulness”. Adverse-DED was a mean of items associated with Dread of Ego Dissolution (Studerus et al., PLoS ONE 2012, 7): “impaired control and cognition”, and “anxiety.” Scores for Mystical-OBN ranged from 1-5.92 (M=3.87, SD=1.16; α=0.93), and scores for Adverse-DED ranged from 1-5.47 (M=2.25, SD=0.98, α=0.91).
Scale items measuring change based on pairs of adjectives adapted from Griffiths (2006). Individuals used a 5-point scale to indicate whether they had experienced a decrease, no change, or an increase in the characteristics. Positive change was calculated with the mean of nine items related to interpersonal traits, intrapersonal characteristics, and attitudes (Cronbach's α=0.929). Negative change was the mean of three items (α=0.883).
Analyses of the impact of mystical experience on long-term outcomes were conducted in two ways: (1) independent t-test comparisons of each long-term outcome based on a complete or not complete mystical experience, and (2) a path analysis of the mediating role of mystical experience on positive change.
Scores for importance were based on a slider scale ranging from 1 to 100. […] Flourishing was rated on a 6-point scale ranging from 1=strongly disagree to 6=strongly agree.

[3] = Complete mystical experience, N=51
[4] = None/partial mystical experience, N=129

CN(C)CCc1c[nH]c2cccc(OP(=O)(O)O)c12 [psilocybin]
proportion meeting criteria for a complete ME ([1]; MEQ30, >2.5 of 4 on all four subscales, whole sample): 58% | proportion with a full ME, experienced psychedelic users ([1]; MEQ30, >2.5 of 4 on all subscales, experienced users, n=70): 63% | proportion with a full ME, novice users ([1]; MEQ30, >2.5 of 4 on all subscales, novice users, n=13): 42% | proportion reporting complete MEs, reanalysis with cut point of 3 ([1]; MEQ30, cut point 3 of 4 on all subscales): 45% | Positive Change, Mean ([1]; participants with Complete ME, N=83): 3.8348 | Positive Change, Mean ([1]; participants with No/Incomplete ME, N=60): 3.2274 | mean positive change score ([1]; whole sample (143 valid responses), higher scores = increases in positive emotions and decreases in negative emotions): 3.58 (SD=0.65) | Adverse-DED score, mean ([2]; 5D-ASC Dread of Ego Dissolution items, whole sample (183)): 2.25 | Mystical-OBN score, mean ([2]; 5D-ASC Oceanic Boundlessness items, whole sample (183)): 3.87 | Negative Change, Mean [2, 3]: 2.22 | Positive Change, Mean [2, 3]: 4.00 | Flourishing, Mean [2, 3]: 4.78 | Importance, Mean [2, 3]: 75.66 | Negative Change, Mean [2, 4]: 2.75 and 2.74 | Positive Change, Mean [2, 4]: 3.39 | Flourishing, Mean [2, 4]: 4.39 | Importance, Mean [2, 4]: 42.75
